From the CheMixHub viscosity set

Assay: xn = mol fraction of the nth substance listed

CCCCCCCCCC + CC(C)O
viscosity [mPa·s]
Details	293.15 K	298.15 K	303.15 K	308.15 K
101 kPa, x2 = 0.0571	–	0.839	–	0.757
101 kPa, x2 = 0.1237	–	0.837	–	0.74
101 kPa, x2 = 0.1714	–	0.838	–	0.726
101 kPa, x2 = 0.2709	–	0.851	–	0.735
101 kPa, x2 = 0.3525	–	0.867	–	0.746
101 kPa, x2 = 0.4184	–	0.888	–	0.762
101 kPa, x2 = 0.5253	–	0.945	–	0.8
101 kPa, x2 = 0.5786	–	0.986	–	0.824
101 kPa, x2 = 0.6537	–	1.059	–	0.882
101 kPa, x2 = 0.6971	–	1.113	–	0.909
101 kPa, x2 = 0.7895	–	1.261	–	1.013
101 kPa, x2 = 0.8717	–	1.457	–	1.152
101 kPa, x2 = 0.9099	–	1.583	–	1.246
101 kPa, x2 = 0.9453	–	1.727	–	1.35
101.32 kPa, x2 = 0.0412	0.896	0.831	0.773	–
101.32 kPa, x2 = 0.0998	0.893	0.827	0.768	–
101.32 kPa, x2 = 0.161	0.904	0.847	0.785	–
101.32 kPa, x2 = 0.2938	0.916	0.845	0.777	–
101.32 kPa, x2 = 0.3954	0.957	0.878	0.809	–
101.32 kPa, x2 = 0.4988	1.006	0.916	0.836	–
101.32 kPa, x2 = 0.5943	1.095	0.986	0.893	–
101.32 kPa, x2 = 0.7019	1.241	1.11	0.994	–
101.32 kPa, x2 = 0.8012	1.436	1.273	1.127	–
101.32 kPa, x2 = 0.9017	1.759	1.538	1.348	–
101.32 kPa, x2 = 0.951	2.014	1.742	1.515	–

CC1(C)OCC(CO)O1 (configuration not stated) + OCCO
viscosity [mPa·s], 101 kPa
Details	x1 = 0.0997	x1 = 0.2	x1 = 0.3008	x1 = 0.3988	x1 = 0.5014	x1 = 0.6	x1 = 0.7003	x1 = 0.8	x1 = 0.8997
298.15 K	15.54	14.27	12.57	11.4	10.31	9.722	9.762	9.801	9.695
308.15 K	10.5	9.645	8.569	7.712	6.932	6.525	6.516	6.912	6.889
318.15 K	7.537	6.894	6.139	5.409	4.898	4.639	4.882	5.057	5.085

CCCCC + CC1CCCCC1
viscosity [mPa·s], 101 kPa
Details	x2 = 0.0407	x2 = 0.2014	x2 = 0.2807	x2 = 0.3471	x2 = 0.4382	x2 = 0.6005	x2 = 0.681	x2 = 0.7595	x2 = 0.8406	x2 = 0.9199
293.15 K	0.2369	0.2738	0.2958	0.3151	0.3506	0.429	0.4775	0.5323	0.5947	0.6586
298.15 K	0.2277	0.2567	0.2795	0.3014	0.337	0.4124	0.4571	0.5046	0.5587	0.6168
303.15 K	0.1977	0.2381	0.2612	0.2824	0.3164	0.3885	0.431	0.4771	0.5299	0.5849

[K+].[O-][Cl+2]([O-])[O-] + O
viscosity [mPa·s], 100 kPa
Details	293.15 K	298.15 K	303.15 K	308.15 K	313.15 K	318.15 K
x1 = 0.000182	0.995	0.888	0.799	0.725	0.661	0.607
x1 = 0.0018	0.984	0.878	0.789	0.717	0.655	0.602
x1 = 0.003608	0.979	0.874	0.788	0.717	0.656	0.603
x1 = 0.005413	0.977	0.873	0.788	0.718	0.656	0.604
x1 = 0.00717	0.977	0.876	0.791	0.72	0.659	0.608
x1 = 0.008941	0.983	0.881	0.797	0.725	0.665	0.613

OC1CCCCC1 + OCCO
viscosity [mPa·s], 100 kPa
Details	293.15 K	298.15 K	303.15 K	308.15 K	313.15 K	318.15 K
x1 = 0.0097	20.9	16.96	13.79	11.32	9.626	7.932
x1 = 0.0396	21.26	17.11	13.94	11.35	9.765	8.069
x1 = 0.058	21.37	17.21	14.04	11.44	9.849	8.139
x1 = 0.088	21.54	17.34	14.16	11.54	9.965	8.26
x1 = 0.1001	21.6	17.4	14.2	11.58	10	8.294
x1 = 0.1963	21.79	17.59	14.34	11.66	10.09	8.427
x1 = 0.3051	21.94	17.71	14.45	11.76	10.19	8.481
x1 = 0.397	22.13	17.96	14.66	12.02	10.42	8.606
x1 = 0.4994	23.25	18.43	15.1	12.54	10.71	8.723
x1 = 0.5878	26.46	20.22	16.33	12.82	11.32	9.179
x1 = 0.6994	31.25	23.24	18.88	14.44	12.15	9.912
x1 = 0.7971	38.27	28.43	22.87	17.78	14.34	11.34
x1 = 0.8978	53.55	38	28.77	22.38	17.93	13.99
